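Briefly, cells in 96-well plates were exposed to five compound concentrations for 48 h, and endpoints were estimated by linear interpolation. TGI denotes the concentration required for complete inhibition of growth.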
Legend:
Assay in all cases: NCI-60 cell line screen, 48 h
K-562 leukemia = system: K-562 leukemia
PC-3 prostate = system: PC-3 prostate
HCT-15 colon = system: HCT-15 colon
SNB-19 CNS = system: SNB-19 CNS
OVCAR-8 ovarian = system: OVCAR-8 ovarian
TK-10 renal = system: TK-10 renal
U251 CNS = system: U251 CNS
NCI-H522 lung = system: NCI-H522 lung
ACHN renal = system: ACHN renal
SK-OV-3 ovarian = system: SK-OV-3 ovarian
NCI-H460 lung = system: NCI-H460 lung
786-0 renal = system: 786-0 renal
CAKI-1 renal = system: CAKI-1 renal
COLO 205 colon = system: COLO 205 colon
NCI/ADR-RES ovarian = system: NCI/ADR-RES ovarian
OVCAR-3 ovarian = system: OVCAR-3 ovarian
A549 NSCLC = system: A549 NSCLC
BT-549 breast = system: BT-549 breast
HS 578T breast = system: HS 578T breast
SW-620 colon = system: SW-620 colon
SN12C renal = system: SN12C renal
MDA-N = system: MDA-N
OVCAR-5 ovarian = system: OVCAR-5 ovarian
UO-31 renal = system: UO-31 renal
SNB-75 CNS = system: SNB-75 CNS
RPMI-8226 leukemia = system: RPMI-8226 leukemia
MALME-3M melanoma = system: MALME-3M melanoma
SR leukemia = system: SR leukemia
HOP-92 NSCLC = system: HOP-92 NSCLC
T-47D breast = system: T-47D breast
HOP-62 NSCLC = system: HOP-62 NSCLC
KM12 colon = system: KM12 colon
IGROV1 ovarian = system: IGROV1 ovarian
M14 melanoma = system: M14 melanoma
HCT-116 colon = system: HCT-116 colon
MDA-MB-435 = system: MDA-MB-435
OVCAR-4 ovarian = system: OVCAR-4 ovarian
UACC-62 melanoma = system: UACC-62 melanoma
NCI-H23 lung = system: NCI-H23 lung
UACC-257 melanoma = system: UACC-257 melanoma
SK-MEL-5 melanoma = system: SK-MEL-5 melanoma
SK-MEL-2 melanoma = system: SK-MEL-2 melanoma
HT29 colon = system: HT29 colon
SF-295 CNS = system: SF-295 CNS
HL-60(TB) leukemia = system: HL-60(TB) leukemia
SF-268 CNS = system: SF-268 CNS
CCRF-CEM leukemia = system: CCRF-CEM leukemia
SK-MEL-28 melanoma = system: SK-MEL-28 melanoma
LOX IMVI melanoma = system: LOX IMVI melanoma
EKVX NSCLC = system: EKVX NSCLC
DU-145 prostate = system: DU-145 prostate
MCF7 breast = system: MCF7 breast
MOLT-4 leukemia = system: MOLT-4 leukemia
NCI-H226 lung = system: NCI-H226 lung

Measured: TGI

CC12CCCC(C(=O)O)(C1)[C@H](C(C)(C)C(=O)O)CC2 (some centres undefined)
> 100 µM: K-562 leukemia | PC-3 prostate | HCT-15 colon | SNB-19 CNS | OVCAR-8 ovarian | TK-10 renal | U251 CNS | NCI-H522 lung | ACHN renal | SK-OV-3 ovarian | NCI-H460 lung | 786-0 renal | CAKI-1 renal | COLO 205 colon | NCI/ADR-RES ovarian | OVCAR-3 ovarian | A549 NSCLC | BT-549 breast | HS 578T breast | SW-620 colon | SN12C renal | MDA-N | OVCAR-5 ovarian | UO-31 renal | SNB-75 CNS | RPMI-8226 leukemia | MALME-3M melanoma | SR leukemia | HOP-92 NSCLC | T-47D breast | HOP-62 NSCLC | KM12 colon | IGROV1 ovarian | M14 melanoma | HCT-116 colon | MDA-MB-435 | OVCAR-4 ovarian | UACC-62 melanoma | NCI-H23 lung | UACC-257 melanoma | SK-MEL-5 melanoma | SK-MEL-2 melanoma | HT29 colon | SF-295 CNS | HL-60(TB) leukemia | SF-268 CNS | CCRF-CEM leukemia | SK-MEL-28 melanoma | LOX IMVI melanoma | EKVX NSCLC | DU-145 prostate | MCF7 breast | MOLT-4 leukemia | NCI-H226 lung

Source: PubChem BioAssay (NCI)
